According to patent US4343807A, “Derivatives of clavulanic acid, a process for their preparation and their use” (Beecham Group Limited, priority 1979, dated 1982):
Values after ≈ are worked out from the molar mass of the structure shown.

Tests used:
Type in all cases: cell-based
E. Coli JT39 = experiment: MIC by standard microtitre technique (dilution in tryptone soy broth); conditions: Escherichia coli, substance alone
Protocol: (§1) By a standard microtitre technique the MIC values for ampicillin alone, ampicillin and 9-N-(2-N-morpholinoethyl)aminodeoxyclavulanic acid and 9-N-(2-N-morpholinoethyl)aminodeoxyclavulanic acid alone were determined.
(§2) MIC μg/ml (dilution in tryptone soy broth)
(§3) By a standard microtitre technique the MIC values for ampicillin alone, ampicillin and 9-N-[3'-N-(2"-pyrrolidinoyl)propyl]aminodeoxyclavulanic acid and 9-N[3'-N-(2"-pyrrolidinoyl)propyl]aminodeoxyclavulanic acid alone were determined.

Kleb Aergenes E70 = experiment: as above; conditions: Klebsiella aerogenes, substance alone
Protocol: as §1, §2, §3

Staph. Aureus Russell [1] = experiment: as above; conditions: Staphylococcus aureus, substance alone
Protocol: as §1, §2, §3

Staph. Aureus Russell [2] = experiment: Antibacterial activity, MIC (dilution in blood agar-heavy inoculum); conditions: Staphylococcus aureus
From the text: (§4) Antibacterial activity of 9-N-[3'-N-(2"-pyrrolidinonyl)propyl]aminodeoxyclavulanic acid
(§5) Dilution in blood agar-heavy inoculum

Staph. aureus Oxford = experiment: as above; conditions: Staphylococcus aureus
From the text: as §4, §5

Strep. pneumoniae = experiment: as above; conditions: Streptococcus pneumoniae
From the text: as §4, §5

Strep. pyogenes = experiment: as above; conditions: Streptococcus pyogenes
From the text: as §4, §5

SMILES | MIC (E. Coli JT39) | MIC (Kleb Aergenes E70) | MIC (Staph. Aureus Russell [1]) | MIC (Staph. Aureus Russell [2]) | MIC (Staph. aureus Oxford) | MIC (Strep. pneumoniae) | MIC (Strep. pyogenes)
O=C(O)[C@H]1/C(=C/CNCCCN2CCCC2=O)O[C@@H]2CC(=O)N21 [Example 2, 9-N[3'-N-(2"-Pyrrolidinonyl)propyl]aminodeoxyclavulanic acid] | 62 µg/mL (≈ 192 µM) | 500 µg/mL (≈ 1550 µM) | 16 µg/mL (≈ 49.5 µM) | 5 µg/mL (≈ 15.5 µM) | 5 µg/mL (≈ 15.5 µM) | 5 µg/mL (≈ 15.5 µM) | 1.25 µg/mL (≈ 3.87 µM)
O=C(O)[C@H]1/C(=C/CNCCN2CCOCC2)O[C@@H]2CC(=O)N21 [Example 1, 9-N-(2'-N-Morpholinoethyl)aminodeoxyclavulanic acid] | 62 µg/mL (≈ 199 µM) | 500 µg/mL (≈ 1610 µM) | 16 µg/mL (≈ 51.4 µM) |  |  |  | 
CC1(C)S[C@@H]2[C@H](NC(=O)[C@H](N)c3ccccc3)C(=O)N2[C@H]1C(=O)O [Ampicillin, reference compound] | > 2000 µg/mL | 1000 µg/mL (≈ 2860 µM) | 1000 µg/mL (≈ 2860 µM) |  |  |  | 
